Assay: solubility in aqueous medium at pH=6.7
Type: physicochemical

| Structure (SMILES) | solubility in aqueous medium in comparison with Form I of U.S. Pat. No. 8,791,122 (comparison with Form I) | solubility in aqueous medium |
| --- | --- | --- |
| CC(C)N(CCCCOCC(=O)NS(C)(=O)=O)c1cnc(-c2ccccc2)c(-c2ccccc2)n1 [Form IV of Selexipag, 2-{4-[(5,6-diphenylpyrazin-2-yl)(isopropyl)amino]butoxy}-N-(methylsulfonyl)acetamide] | enhanced solubility | – |
| CC(C)N(CCCCOCC(=O)NS(C)(=O)=O)c1cnc(-c2ccccc2)c(-c2ccccc2)n1 [Selexipag Form I, 2-{4-[(5,6-diphenylpyrazin-2-yl)(isopropyl)amino]butoxy}-N-(methylsulfonyl)acetamide] | – | practically insoluble |
